In patent US11535590B2, “Sulfonium salt photoinitiator, preparation method therefor, photocurable composition comprising sulfonium salt photoinitiator, and use thereof” (CHANGZHOU TRONLY NEW ELECTRONIC MATERIALS CO., LTD., priority 2017, dated 2022):
Where two headings read alike, the source gives them in different places.

Assay: Evaluation of solubilities of photoinitiators in cationic active diluents
Assay type: physicochemical
Conditions: for Solubility in DOX: diluent DOX: 3,3′-[oxybismethylene]bis[3-ethyl] oxetane; for Solubility in DVE-3: diluent DVE-3: triethyleneglycol divinyl ether; for Solubility in Epoxy resin 6110: diluent Epoxy resin 6110: 3.4-epoxycyclohexylmethyl-3,4-epoxycyclohexyl carboxylate
[1] = diluent POX: 3-ethyl-3-(phenoxymethyl) oxetane

Molecule	Solubility in DOX	Solubility in DVE-3	Solubility in Epoxy resin 6110	Solubility in POX [1]	Solubility in POX
COC(=O)C(=O)c1ccc(Sc2ccc([S+](c3ccc(Sc4ccc(C(=O)C(=O)OC)cc4)cc3)c3ccc(Sc4ccc(C(=O)C(=O)OC)cc4)cc3)cc2)cc1 [Compound 1]	>10%	>10%	>10%	>10%	–
CCOC(=O)C(=O)c1ccc(Oc2ccc([S+](c3ccccc3)c3ccccc3)cc2)cc1 [Compound 2]	>10%	>10%	>10%	>10%	–
CCOC(=O)C(=O)c1ccc(Oc2ccc([S+](c3ccc(C)cc3)c3ccc(C)cc3)cc2)cc1 [Compound 7]	>10%	>10%	>10%	>10%	–
[F][Sb-]([F])([F])([F])([F])[F].[F][Sb-]([F])([F])([F])([F])[F].c1ccc([S+](c2ccccc2)c2ccc(Sc3ccc([S+](c4ccccc4)c4ccccc4)cc3)cc2)cc1 [UVI6976, bis(4,4′-thioethertriphenylsulfonium) hexafluoroantimonate, reference compound]	<2%	<2%	<2%	–	<2%
phenylthiophenyl diphenylsulfonium hexafluoroantimonate [UVI6992, reference compound]	<2%	<2%	<2%	<2%	–
